Columns and labels:
PDGFRβ = PDGFRβ (Homo sapiens (Human), UniProt P09619); assay: PDGFRβ enzyme inhibition (ADP-Glo assay); format: biochemical; settings: mean, n = 2 (nintedanib n = 34)
[1] = Pharmacokinetic measurements in rats, intra-tracheal dosing; format: in vivo; settings: rat; for Lung conc i.t./i.v. Ratio at time 0.1 h / Lung conc i.t./i.v. Ratio at time 1.5 h / Lung conc i.t./i.v. Ratio at time 6 h / Lung conc i.t./i.v. Ratio at time 24 h: i.t. versus i.v.; for concentration at 0.1 h: read-out: lung concentration (nM) at time 0.1 h; for concentration at 1.5 h: read-out: lung concentration (nM) at time 1.5 h; for concentration at 6 h: read-out: lung concentration (nM) at time 6 h; for concentration at 24 h: read-out: lung concentration (nM) at time 24 h; for Kp at 0.1 h / Kp at 1.5 h / Kp at 6 h / Kp at 24 h: lung/plasma; for Kp at 0.1 h: read-out: lung/plasma conc ratio at time 0.1 h; for Kp at 1.5 h: read-out: lung/plasma conc ratio at time 1.5 h; for Kp at 6 h: read-out: lung/plasma conc ratio at time 6 h; for Kp at 24 h: read-out: lung/plasma conc ratio at time 24 h
[2] = Pharmacokinetic measurements in rats, intravenous dosing; format: in vivo; settings: rat; for concentration at 0.1 h: read-out: lung concentration (nM) at time 0.1 h; for concentration at 1.5 h: read-out: lung concentration (nM) at time 1.5 h; for concentration at 6 h: read-out: lung concentration (nM) at time 6 h; for concentration at 24 h: read-out: lung concentration (nM) at time 24 h; for Kp at 0.1 h / Kp at 1.5 h / Kp at 6 h / Kp at 24 h: lung/plasma; for Kp at 0.1 h: read-out: lung/plasma ratio at time 0.1 h; for Kp at 1.5 h: read-out: lung/plasma ratio at time 1.5 h; for Kp at 6 h: read-out: lung/plasma ratio at time 6 h; for Kp at 24 h: read-out: lung/plasma ratio at time 24 h
PAMPA permeability assay = format: in vitro ADME; settings: PAMPA experimental recovery
[3] = male, CD, lung, other: intra-tracheal
[4] = male, CD, other: intra-tracheal

PDGFRβ, sequence (P09619 33-1106): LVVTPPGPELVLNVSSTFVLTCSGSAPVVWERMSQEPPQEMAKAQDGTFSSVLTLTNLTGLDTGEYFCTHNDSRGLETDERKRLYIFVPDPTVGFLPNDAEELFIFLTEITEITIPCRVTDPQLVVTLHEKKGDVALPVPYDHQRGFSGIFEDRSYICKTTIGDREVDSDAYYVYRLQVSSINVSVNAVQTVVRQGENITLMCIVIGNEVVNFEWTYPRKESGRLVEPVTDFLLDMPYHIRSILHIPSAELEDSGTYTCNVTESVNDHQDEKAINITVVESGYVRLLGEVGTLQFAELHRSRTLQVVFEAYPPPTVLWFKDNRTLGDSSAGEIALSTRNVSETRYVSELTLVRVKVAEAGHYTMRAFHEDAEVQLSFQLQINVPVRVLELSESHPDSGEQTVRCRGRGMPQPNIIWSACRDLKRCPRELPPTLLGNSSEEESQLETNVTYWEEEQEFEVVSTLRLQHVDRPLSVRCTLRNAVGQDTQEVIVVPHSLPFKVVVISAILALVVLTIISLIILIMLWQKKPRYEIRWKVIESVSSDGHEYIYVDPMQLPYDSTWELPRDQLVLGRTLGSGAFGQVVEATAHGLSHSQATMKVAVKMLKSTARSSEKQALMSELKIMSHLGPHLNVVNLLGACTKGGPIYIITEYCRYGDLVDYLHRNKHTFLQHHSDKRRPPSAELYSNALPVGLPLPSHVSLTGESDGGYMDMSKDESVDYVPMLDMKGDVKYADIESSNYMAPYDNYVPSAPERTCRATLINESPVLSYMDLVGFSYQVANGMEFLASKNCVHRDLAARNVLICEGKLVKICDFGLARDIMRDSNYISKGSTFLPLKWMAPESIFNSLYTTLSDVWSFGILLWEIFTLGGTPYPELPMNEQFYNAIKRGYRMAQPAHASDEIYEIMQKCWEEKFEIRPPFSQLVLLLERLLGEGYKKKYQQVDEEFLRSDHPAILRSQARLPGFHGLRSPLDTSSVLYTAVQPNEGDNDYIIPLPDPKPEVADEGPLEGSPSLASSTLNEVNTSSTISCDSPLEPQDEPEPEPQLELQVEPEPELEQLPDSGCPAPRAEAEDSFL

Q: For `COC(=O)c1cc2c(cc1C)/C(=C(/Nc1ccc(S(=O)(=O)NCCN3CCN(C)CC3)cc1)c1ccccc1)C(=O)N2` [Example 1, (Z)-Methyl 5-methyl-3-(((4-(N-(2-(4-methylpiperazin-1-yl)ethyl)sulfamoyl)phenyl)amino)(phenyl)methylene)-2-oxoindoline-6-carboxylate], which Ki (PDGFRβ) is on record?
A: 9.93 nM

Q: Which “Lung conc i.t./i.v. Ratio at time 0.1 h” value ([1]; 0.1 h) does the source give for `COC(=O)c1cc2c(cc1C)/C(=C(/Nc1ccc(C(=O)NCC3CCN(C)CC3)cc1)c1ccccc1)C(=O)N2` [Example 3, (Z)-Methyl 5-methyl-3-(((4-(((1-methylpiperidin-4-yl)methyl)carbamoyl)phenyl)amino)(phenyl)methylene)-2-oxoindoline-6-carboxylate] here?
A: 3

Q: And the “Lung conc i.t./i.v. Ratio at time 1.5 h” value ([1]; 1.5 h)?
A: 7

Q: What about the “Lung conc i.t./i.v. Ratio at time 6 h” value ([1]; 6 h) of the same molecule?
A: 15

Q: And the “Lung conc i.t./i.v. Ratio at time 24 h” value ([1]; 24 h)?
A: 14

Q: For `COC(=O)c1cc2c(cc1C)/C(=C(/Nc1ccc(C(=O)NCCN3CCCN(C)CC3)cc1)c1ccccc1)C(=O)N2` [Example 5, (Z)-Methyl 5-methyl-3-(((4-((2-(4-methyl-1,4-diazepan-1-yl)ethyl)carbamoyl)phenyl)amino)(phenyl)methylene)-2-oxoindoline-6-carboxylate], which concentration at 0.1 h [1, 3] is on record?
A: 5510 nM

Q: What about the concentration at 1.5 h [1, 3] of the same molecule?
A: 4020 nM

Q: What about the concentration at 6 h [1, 3] of the same molecule?
A: 1070 nM

Q: What about the concentration at 24 h [1, 3] of the same molecule?
A: 1670 nM

Q: What about the Kp at 0.1 h [1, 4] of the same molecule?
A: 371

Q: What about the Kp at 1.5 h [1, 4] of the same molecule?
A: > 2280

Q: What about the Kp at 6 h [1, 4] of the same molecule?
A: > 606

Q: And the Kp at 24 h [1, 4]?
A: > 951

Q: And the “Lung conc i.t./i.v. Ratio at time 0.1 h” value ([1]; 0.1 h)?
A: 7

Q: And the “Lung conc i.t./i.v. Ratio at time 1.5 h” value ([1]; 1.5 h)?
A: 12

Q: And the “Lung conc i.t./i.v. Ratio at time 6 h” value ([1]; 6 h)?
A: 2

Q: What about the “Lung conc i.t./i.v. Ratio at time 24 h” value ([1]; 24 h) of the same molecule?
A: 7

Q: What about the concentration at 0.1 h ([2]; male, CD, lung, iv) of the same molecule?
A: 765 nM

Q: And the concentration at 1.5 h ([2]; male, CD, lung, iv)?
A: 330 nM

Q: And the concentration at 6 h ([2]; male, CD, lung, iv)?
A: 499 nM

Q: And the concentration at 24 h ([2]; male, CD, lung, iv)?
A: 247 nM

Q: What about the Kp at 0.1 h ([2]; male, CD, iv) of the same molecule?
A: 127

Q: What about the Kp at 1.5 h ([2]; male, CD, iv) of the same molecule?
A: > 188

Q: And the Kp at 6 h ([2]; male, CD, iv)?
A: > 284

Q: And the Kp at 24 h ([2]; male, CD, iv)?
A: > 140

Q: And the Ki (PDGFRβ)?
A: 12.9 nM

Q: Which concentration at 0.1 h [1, 3] does the source give for `COC(=O)c1cc2c(cc1C)/C(=C(/Nc1ccc(C(=O)NCCN3CCC(N(C)C)CC3)cc1)c1ccccc1)C(=O)N2` [Example 6, (Z)-Methyl 3-(((4-((2-(4-(dimethylamino)piperidin-1-yl)ethyl)carbamoyl)phenyl)amino)(phenyl)methylene)-5-methyl-2-oxoindoline-6-carboxylate] here?
A: 9830 nM

Q: What about the concentration at 1.5 h [1, 3] of the same molecule?
A: 7570 nM

Q: And the concentration at 6 h [1, 3]?
A: 7820 nM

Q: What about the concentration at 24 h [1, 3] of the same molecule?
A: 6440 nM

Q: And the Kp at 0.1 h [1, 4]?
A: 472

Q: And the Kp at 1.5 h [1, 4]?
A: > 4450

Q: And the Kp at 6 h [1, 4]?
A: > 4600

Q: And the Kp at 24 h [1, 4]?
A: > 3790

Q: And the “Lung conc i.t./i.v. Ratio at time 0.1 h” value ([1]; 0.1 h)?
A: 9.8

Q: What about the “Lung conc i.t./i.v. Ratio at time 1.5 h” value ([1]; 1.5 h) of the same molecule?
A: 8.0

Q: And the “Lung conc i.t./i.v. Ratio at time 6 h” value ([1]; 6 h)?
A: 8.3

Q: What about the “Lung conc i.t./i.v. Ratio at time 24 h” value ([1]; 24 h) of the same molecule?
A: 7.7

Q: And the concentration at 0.1 h ([2]; male, CD, lung, iv)?
A: 1000 nM

Q: What about the concentration at 1.5 h ([2]; male, CD, lung, iv) of the same molecule?
A: 949 nM

Q: And the concentration at 6 h ([2]; male, CD, lung, iv)?
A: 939 nM

Q: What about the concentration at 24 h ([2]; male, CD, lung, iv) of the same molecule?
A: 837 nM

Q: What about the Kp at 0.1 h ([2]; male, CD, iv) of the same molecule?
A: 77

Q: And the Kp at 1.5 h ([2]; male, CD, iv)?
A: > 558

Q: What about the Kp at 6 h ([2]; male, CD, iv) of the same molecule?
A: > 552

Q: What about the Kp at 24 h ([2]; male, CD, iv) of the same molecule?
A: > 492

Q: What about the Ki (PDGFRβ) of the same molecule?
A: 10.3 nM

Q: With `COC(=O)c1cc2c(cc1C)/C(=C(/Nc1ccc(C(=O)NCC(=O)N3CCN(CCO)CC3)cc1)c1ccccc1)C(=O)N2` [Example 7, (Z)-Methyl 3-(((4-((2-(4-(2-hydroxyethyl)piperazin-1-yl)-2-oxoethyl)carbamoyl)phenyl)amino)(phenyl)methylene)-5-methyl-2-oxoindoline-6-carboxylate] as the molecule, how does the concentration at 0.1 h [1, 3] read?
A: 1530 nM

Q: What about the concentration at 1.5 h [1, 3] of the same molecule?
A: 886 nM

Q: What about the concentration at 6 h [1, 3] of the same molecule?
A: 116 nM

Q: And the concentration at 24 h [1, 3]?
A: 27 nM

Q: What about the Kp at 0.1 h [1, 4] of the same molecule?
A: 39

Q: And the Kp at 1.5 h [1, 4]?
A: > 265

Q: And the Kp at 6 h [1, 4]?
A: > 35

Q: What about the Kp at 24 h [1, 4] of the same molecule?
A: > 8

Q: What about the “Lung conc i.t./i.v. Ratio at time 6 h” value ([1]; 6 h) of the same molecule?
A: >42

Q: What about the “Lung conc i.t./i.v. Ratio at time 24 h” value ([1]; 24 h) of the same molecule?
A: >10

Q: What about the concentration at 0.1 h ([2]; male, CD, lung, iv) of the same molecule?
A: 99 nM

Q: And the concentration at 1.5 h ([2]; male, CD, lung, iv)?
A: 44 nM

Q: What about the Kp at 0.1 h ([2]; male, CD, iv) of the same molecule?
A: 2

Q: And the Kp at 1.5 h ([2]; male, CD, iv)?
A: 12

Q: What about the Ki (PDGFRβ) of the same molecule?
A: 5.76 nM

Q: For `COC(=O)c1cc2c(cc1C)/C(=C(/Nc1ccc(C(=O)NCC(=O)N3CCN(C)CC3)cc1)c1ccccc1)C(=O)N2` [Example 8, (Z)-Methyl 5-methyl-3-(((4-((2-(4-methylpiperazin-1-yl)-2-oxoethyl)carbamoyl)phenyl)amino)(phenyl)methylene)-2-oxoindoline-6-carboxylate], which Ki (PDGFRβ) is on record?
A: 8.12 nM

Q: Which results are given for `COC(=O)c1cc2c(cc1C)/C(=C(/Nc1ccc(C(=O)NCCN3CCNC(=O)C3)cc1)c1ccccc1)C(=O)N2` [Example 9, (Z)-Methyl 5-methyl-2-oxo-3-(((4-((2-(3-oxopiperazin-1-yl)ethyl)carbamoyl)phenyl)amino)(phenyl)methylene)indoline-6-carboxylate]?
A: Lung conc i.t./i.v. Ratio at time 0.1 h ([1]; 0.1 h): 12; Lung conc i.t./i.v. Ratio at time 1.5 h ([1]; 1.5 h): 51; Lung conc i.t./i.v. Ratio at time 6 h ([1]; 6 h): 45; Lung conc i.t./i.v. Ratio at time 24 h ([1]; 24 h): 21

Q: Which Ki (PDGFRβ) does the source give for `COC(=O)c1cc2c(cc1C)/C(=C(/Nc1ccc(C(=O)NCCN3CCC(O)CC3)cc1)c1ccccc1)C(=O)N2` [Example 12, (Z)-Methyl 3-(((4-((2-(4-hydroxypiperidin-1-yl)ethyl)carbamoyl)phenyl)amino)(phenyl)methylene)-5-methyl-2-oxoindoline-6-carboxylate] here?
A: 8.75 nM

Q: Which “% Recovery” value (PAMPA permeability assay) does the source give for `COC(=O)c1cc2c(cc1C)/C(=C(/Nc1ccc(C(=O)NC3CCN(C)CC3)cc1)c1ccccc1)C(=O)N2` [Example 18, (Z)-Methyl-5-methyl-3-(((4-((1-methylpiperidin-4-yl)carbamoyl)phenyl)amino)(phenyl)methylene)-2-oxoindoline-6-carboxylate] here?
A: 84.5%

Q: What about the concentration at 0.1 h ([1]; i.t. dose 0.1 (nintedanib 0.42), 0.1 h) of the same molecule?
A: 6533 nM

Q: What about the concentration at 1.5 h ([1]; i.t. dose 0.1 (nintedanib 0.42), 1.5 h) of the same molecule?
A: 5987 nM

Q: What about the concentration at 6 h ([1]; i.t. dose 0.1 (nintedanib 0.42), 6 h) of the same molecule?
A: 2351 nM

Q: What about the concentration at 24 h ([1]; i.t. dose 0.1 (nintedanib 0.42), 24 h) of the same molecule?
A: 4523 nM

Q: What about the t½ ([2]; i.v. dose 0.1 (nintedanib 0.42)) of the same molecule?
A: 5.1 h

Q: What about the concentration at 0.1 h ([2]; i.v. dose 0.1 (nintedanib 0.42), 0.1 h) of the same molecule?
A: 638 nM

Q: And the concentration at 1.5 h ([2]; i.v. dose 0.1 (nintedanib 0.42), 1.5 h)?
A: 306 nM

Q: What about the concentration at 6 h ([2]; i.v. dose 0.1 (nintedanib 0.42), 6 h) of the same molecule?
A: 201 nM

— US11208381B2, “Indole derivatives and their use as protein kinase inhibitors” (RespiVert Limited, priority 2016, dated 2021)
